# Reference: patent publication US5747235A, “Silver halide light sensitive emulsion layer having enhanced photographic sensitivity” (Eastman Kodak Company, priority 1996, dated 1998)
# Columns and labels:
# Assay type in all cases: physicochemical
# [1] = oxidation potential E2 of radical X by laser flash photolysis; settings: Table C; by parent XY compound; < = more negative than
# Description: In this technique, the compound X-Y is oxidized by an electron transfer reaction initiated by a short laser pulse. The oxidized form of X-Y then undergoes the bond cleavage reaction to give the radical X^.cndot.. X^.cndot. is then allowed to interact with various electron acceptor compounds of known reduction potential. […] The experimental details are set forth more fully below. The oxidation potentials (E2) for radicals X^.cndot. for typical compounds useful in accordance with our invention are given in Table C. Where only limits on potentials could be determined, the following notation is used: <-0.90 V should be read as "more negative than -0.90 V" and >-0.40 V should be read as "less negative than -0.40 V".
# (a) Oxidation Potential of Radical X.cndot.
# The laser flash photolysis measurements were performed using a nanosecond pulsed excimer (Questek model 2620, 308 nm, ca. 20 ns, ca. 100 mJ) pumped dye laser (Lambda Physik model FL 3002). The laser dye was DPS (commercially available from Exciton Co.) in p-dioxane (410 nm, ca. 20 ns, ca. 10 mJ). The analyzing light source was a pulsed 150W xenon arc lamp (Osram XBO 150/W). The arc lamp power supply was a PRA model 302 and the pulser was a PRA model M-306. The pulser increased the light output by ca. 100 fold, for a time period of ca. 2-3 ms. The analyzing light was focussed through a small aperture (ca. 1.5 mm) in a cell holder designed to hold 1 cm^2 cuvettes. The laser and analyzing beams irradiated the cell from opposite directions and crossed at a narrow angle (ca. 15°). After leaving the cell, the analyzing light was collimated and focussed onto the slit (1 mm, 4 nm bandpass) of an ISA H-20 monochromator. The light was detected using 5 dynodes of a Hamamatsu model R446 photomultiplier. The output of the photomultiplier tube was terminated into 50 ohm, and captured using a Tektronix DSA-602 digital oscilloscope. The entire experiment is controlled from a personal computer.
# The experiments were performed either in acetonitrile, or a mixture of 80% acetonitrile and 20% water. The first singlet excited state of a cyanoanthracene (A), which acted as the electron acceptor, was produced using the nanosecond laser pulse at 410 nm. […] Secondary electron transfer then occurred between B^.cndot.+ and the lower oxidation potential electron donor X-Y, to generate X-Y^.cndot.+ in high yield. For the investigations of the oxidation potentials of the radicals X^.cndot., typically the cyanoanthrancene concentration was ca. 2×10^-5 M to 10^-4 M the biphenyl concentration was ca. 0.1M. The concentration of the X-Y donor was ca. 10^-3 M. The rates of the electron transfer reactions are determined by the concentrations of the substrates. The concentrations used ensured that the A^.cndot.- and the X-Y^.cndot.+ were generated within 100 ns of the laser pulse. The radical ions could be observed directly by means of their visible absorption spectra. The kinetics of the photogenerated radical ions were monitored by observation of the changes in optical density at the appropriate wavelengths.
# The reduction potential (Ered) of 9,10-dicyanoanthracene (DCA) is -0.91 V. In a typical experiment, DCA is excited and the initial photo-induced electron transfer from the biphenyl (B) to the DCA forms a DCA^.cndot.-, which is observed at its characteristic absorption maximum (λobs =705 nm), within ca. 20 ns of the laser pulse. Rapid secondary electron transfer occurs from X-Y to B^.cndot.+ to generate X-Y^.cndot.+, which fragments to give X^.cndot.. A growth in absorption is then observed at 705 nm with a time constant of ca. 1 microsecond, due to reduction of a second DCA by the X^.cndot.. The absorption signal with the microsecond growth time is equal to the size of the absorption signal formed within 20 ns.
# If the oxidation potential of X^.cndot. is not sufficiently negative to reduce DCA, an estimate of its oxidation potential was obtained by using other cyanoanthracenes as acceptors. […]
# [2] = fragmentation rate constant kfr by laser flash photolysis; settings: Table B; CH3CN/H2O (4:1)
# Description: The kinetics of the bond cleavage or fragmentation reaction can be measured by conventional laser flash photolysis. […] The specific experimental apparatus we used to measure fragmentation rate constants and radical oxidation potentials is described in detail below.
# (b) Fragmentation Rate Constant Determination
# These absorptions were used to determine the kinetics of the fragmentation reactions of the radical cations of the X-Y. Excitation of 9,10-dicyanoanthracene (DCA) in the presence of biphenyl and the X-Y donor, as described above, results in the formation of the DCA^.cndot.- and the X-Y^.cndot.+. By using a concentration of X-Y of ca. 10^-2 M, the X-Y^.cndot.+ can be formed within ca. 20 ns of the laser pulse. […] The monitoring wavelengths used were somewhat different for the different donors, but were mostly around 470-530 nm. […] Alternatively, when the decay rate of the X-Y^.cndot.+ was less than 10^6 s^-1, the solutions were purged with oxygen.
# The experiments measuring the fragmentation rate constants were performed in acetonitrile with the addition of 20% water, so that all of the salts could be easily solubilized. Most experiments were performed at room temperature. […] When this happened, the fragmentation rate constants were measured as a function of temperature, and the rate constant at room temperature determined by extrapolation.
# [3] = oxidation potential E1 by cyclic voltammetry; settings: Table A; 80%/20% acetonitrile/water, 0.1M lithium perchlorate, 25° C.
# Experimental: Oxidation potentials are well known and can be found, for example, in "Encyclopedia of Electrochemistry of the Elements", Organic Section, Volumes XI-XV, A. Bard and H. Lund (Editors) Marcel Dekker Inc., NY. (1984). E1 can be measured by the technique of cyclic voltammetry. In this technique, the electron donating compound is dissolved in a solution of 80%/20% by volume acetonitrile to water containing 0.1M lithium perchlorate. Oxygen is removed from the solution by passing nitrogen gas through the solution for 10 minutes prior to measurement. A glassy carbon disk is used for the working electrode, a platinum wire is used for the counter electrode, and a saturated calomel electrode (SCE) is used for the reference electrode. Measurement is conducted at 25° C. using a potential sweep rate of 0.1 V/sec. The oxidation potential vs. SCE is taken as the peak potential of the cyclic voltammetric wave.
SMILES,"Oxidation Potentials of Radicals (X*), E2 [1]","kfr, Rate Constants for Decarboxylation of Radical Cations [2]","Oxidation Potential of X--Y, E1 [3]"
COc1ccc(N(CC(=O)O)C(C)C(=O)O)cc1 (stereo not drawn) [Compound 15],< -0.9 V,90000 s⁻¹,0.36 V vs SCE
COc1ccc(N(CC(=O)O)CC(=O)O)cc1 [Compound 10],< -0.9 V,9300 s⁻¹,0.38 V vs SCE
O=C(O)CN(CC(=O)O)c1ccccc1 [Compound 13],~ -0.85 V,1.7e+07 s⁻¹,0.54 V vs SCE
CN(C)c1ccc(CC(=O)O)cc1 [Compound 1],> -0.5 V,~ 3.0 × 10^5 s^-1,0.53 V vs SCE
O=C(O)C(O)c1c2ccccc2cc2ccccc12 (stereo not drawn) [Compound 56],< -0.9 V,120000 s⁻¹,0.65 V vs SCE
CC(C(=O)O)N1c2ccccc2Sc2ccccc21 (stereo not drawn) [Compound 57],< -0.9 V,ca. 1 × 10^5 s^-1,0.49 V vs SCE
Cc1ccc(NC(CC(=O)O)C(=O)O)cc1 (stereo not drawn) [Compound 29],< -0.9 V,5.4e+06 s⁻¹,0.52 V vs SCE
Cn1cc(C(C)(C)C(=O)O)c2ccccc21 [Compound 44],-0.81 V,530000 s⁻¹,0.64 V vs SCE
Cc1ccc(N(CC(=O)O)C(C)C(=O)O)cc1 (stereo not drawn) [Compound 20],< -0.9 V,8.1e+06 s⁻¹,0.46 V vs SCE
Cc1ccc(NC(C)C(=O)O)cc1 (stereo not drawn) [Compound 54],< -0.9 V,1.4e+07 s⁻¹,0.44 V vs SCE
Cc1ccc(N(CC(=O)O)CC(=O)O)cc1 [Compound 11],~ -0.9 V,1.6e+06 s⁻¹,0.46 V vs SCE
CCCCN(c1ccc(OC)cc1)C(C)C(=O)O (stereo not drawn) [Compound 36],< -0.9 V,1.1e+06 s⁻¹,0.22 V vs SCE
CC(C(=O)O)N(CC(=O)O)c1ccccc1 (stereo not drawn) [Compound 14],< -0.9 V,> 2e+07 s⁻¹,0.50 V vs SCE
